Results: PubChem BioAssay (NCI)
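Method: 48-hour compound exposure of cells in 96-well plates, five concentrations, linear interpolation of endpoints. GI50 is the concentration that inhibits growth by half. At the TGI there is no net growth.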

What was measured:
Test in all cases: DTP human tumour cell line panel, 48 h
IGROV1 ovarian = test system: IGROV1 ovarian
UO-31 renal = test system: UO-31 renal
SF-295 CNS = test system: SF-295 CNS
HCT-116 colon = test system: HCT-116 colon
SNB-19 CNS = test system: SNB-19 CNS
SK-OV-3 ovarian = test system: SK-OV-3 ovarian
CCRF-CEM leukemia = test system: CCRF-CEM leukemia
OVCAR-4 ovarian = test system: OVCAR-4 ovarian
SK-MEL-5 melanoma = test system: SK-MEL-5 melanoma
SR leukemia = test system: SR leukemia
SK-MEL-28 melanoma = test system: SK-MEL-28 melanoma
A498 renal = test system: A498 renal
UACC-257 melanoma = test system: UACC-257 melanoma
786-0 renal = test system: 786-0 renal
K-562 leukemia = test system: K-562 leukemia
SK-MEL-2 melanoma = test system: SK-MEL-2 melanoma
NCI-H522 lung = test system: NCI-H522 lung
NCI-H23 lung = test system: NCI-H23 lung
SN12C renal = test system: SN12C renal
NCI-H460 lung = test system: NCI-H460 lung
NCI-H226 lung = test system: NCI-H226 lung
TK-10 renal = test system: TK-10 renal
U251 CNS = test system: U251 CNS
OVCAR-3 ovarian = test system: OVCAR-3 ovarian
EKVX NSCLC = test system: EKVX NSCLC
LOX IMVI melanoma = test system: LOX IMVI melanoma
MALME-3M melanoma = test system: MALME-3M melanoma
NCI/ADR-RES ovarian = test system: NCI/ADR-RES ovarian
HL-60(TB) leukemia = test system: HL-60(TB) leukemia
MDA-MB-468 breast = test system: MDA-MB-468 breast
HCC-2998 colon = test system: HCC-2998 colon
KM12 colon = test system: KM12 colon
HS 578T breast = test system: HS 578T breast
T-47D breast = test system: T-47D breast
SNB-75 CNS = test system: SNB-75 CNS
UACC-62 melanoma = test system: UACC-62 melanoma
RPMI-8226 leukemia = test system: RPMI-8226 leukemia
MOLT-4 leukemia = test system: MOLT-4 leukemia
HOP-62 NSCLC = test system: HOP-62 NSCLC
MDA-MB-435 = test system: MDA-MB-435
HCT-15 colon = test system: HCT-15 colon
MDA-MB-231 breast = test system: MDA-MB-231 breast
M14 melanoma = test system: M14 melanoma
A549 NSCLC = test system: A549 NSCLC
MCF7 breast = test system: MCF7 breast
HT29 colon = test system: HT29 colon
SF-268 CNS = test system: SF-268 CNS
DU-145 prostate = test system: DU-145 prostate
SF-539 CNS = test system: SF-539 CNS
SW-620 colon = test system: SW-620 colon
OVCAR-5 ovarian = test system: OVCAR-5 ovarian
OVCAR-8 ovarian = test system: OVCAR-8 ovarian
RXF 393 renal = test system: RXF 393 renal
CAKI-1 renal = test system: CAKI-1 renal
HOP-92 NSCLC = test system: HOP-92 NSCLC
PC-3 prostate = test system: PC-3 prostate
BT-549 breast = test system: BT-549 breast
ACHN renal = test system: ACHN renal
COLO 205 colon = test system: COLO 205 colon

CC(=O)Nc1nc(-c2ccc(N3CCN(C)CC3)c(NS(=O)(=O)c3cccc4c(N(C)C)cccc34)c2)cs1
GI50 (IGROV1 ovarian): 14.2 µM | TGI (IGROV1 ovarian): 26.3 µM | GI50 (UO-31 renal): 10.9 µM | TGI (UO-31 renal): 21.7 µM | GI50 (SF-295 CNS): 7.22 µM | TGI (SF-295 CNS): 18.3 µM | GI50 (HCT-116 colon): 12.3 µM | TGI (HCT-116 colon): 28.8 µM | GI50 (SNB-19 CNS): 12.2 µM | TGI (SNB-19 CNS): 23.5 µM | GI50 (SK-OV-3 ovarian): 13.2 µM | TGI (SK-OV-3 ovarian): 26.8 µM | GI50 (CCRF-CEM leukemia): 13.2 µM | TGI (CCRF-CEM leukemia): 38.2 µM | GI50 (OVCAR-4 ovarian): 13.6 µM | TGI (OVCAR-4 ovarian): 28.2 µM | GI50 (SK-MEL-5 melanoma): 11.9 µM | TGI (SK-MEL-5 melanoma): 23.2 µM | GI50 (SR leukemia): 3.27 µM | TGI (SR leukemia): 18.2 µM | GI50 (SK-MEL-28 melanoma): 10.5 µM | TGI (SK-MEL-28 melanoma): 21.1 µM | GI50 (A498 renal): 13.1 µM | TGI (A498 renal): 24.5 µM | GI50 (UACC-257 melanoma): 13.1 µM | TGI (UACC-257 melanoma): 25.8 µM | GI50 (786-0 renal): 11.7 µM | TGI (786-0 renal): 24.6 µM | GI50 (K-562 leukemia): 15.9 µM | TGI (K-562 leukemia): 85.5 µM | GI50 (SK-MEL-2 melanoma): 13.6 µM | TGI (SK-MEL-2 melanoma): 26.2 µM | GI50 (NCI-H522 lung): 12.6 µM | TGI (NCI-H522 lung): 25.6 µM | GI50 (NCI-H23 lung): 11.3 µM | TGI (NCI-H23 lung): 23.6 µM | GI50 (SN12C renal): 12.1 µM | TGI (SN12C renal): 23.7 µM | GI50 (NCI-H460 lung): 14.4 µM | TGI (NCI-H460 lung): 29 µM | GI50 (NCI-H226 lung): 13.3 µM | TGI (NCI-H226 lung): 28.3 µM | GI50 (TK-10 renal): 16.4 µM | TGI (TK-10 renal): 29.1 µM | GI50 (U251 CNS): 11.1 µM | TGI (U251 CNS): 23.3 µM | GI50 (OVCAR-3 ovarian): 11.5 µM | TGI (OVCAR-3 ovarian): 23.3 µM | GI50 (EKVX NSCLC): 13.1 µM | TGI (EKVX NSCLC): 25.7 µM | GI50 (LOX IMVI melanoma): 10.7 µM | TGI (LOX IMVI melanoma): 21.9 µM | GI50 (MALME-3M melanoma): 11.4 µM | TGI (MALME-3M melanoma): 22.4 µM | GI50 (NCI/ADR-RES ovarian): 16.6 µM | TGI (NCI/ADR-RES ovarian): 37.1 µM | GI50 (HL-60(TB) leukemia): 9.4 µM | TGI (HL-60(TB) leukemia): 24.9 µM | GI50 (MDA-MB-468 breast): 10.7 µM | TGI (MDA-MB-468 breast): 22.3 µM | GI50 (HCC-2998 colon): 12.4 µM | TGI (HCC-2998 colon): 24 µM | GI50 (KM12 colon): 14.4 µM | TGI (KM12 colon): 28.4 µM | GI50 (HS 578T breast): 11.6 µM | TGI (HS 578T breast): 43.6 µM | GI50 (T-47D breast): 12 µM | TGI (T-47D breast): 28.9 µM | GI50 (SNB-75 CNS): 9.24 µM | TGI (SNB-75 CNS): 19.7 µM | GI50 (UACC-62 melanoma): 12.8 µM | TGI (UACC-62 melanoma): 24.1 µM | GI50 (RPMI-8226 leukemia): 8.05 µM | TGI (RPMI-8226 leukemia): 53.6 µM | GI50 (MOLT-4 leukemia): 13.3 µM | TGI (MOLT-4 leukemia): 37.9 µM | GI50 (HOP-62 NSCLC): 12.6 µM | TGI (HOP-62 NSCLC): 25.8 µM | GI50 (MDA-MB-435): 13 µM | TGI (MDA-MB-435): 25.4 µM | GI50 (HCT-15 colon): 12.6 µM | TGI (HCT-15 colon): 25.4 µM | GI50 (MDA-MB-231 breast): 14.4 µM | TGI (MDA-MB-231 breast): 26.6 µM | GI50 (M14 melanoma): 12.8 µM | TGI (M14 melanoma): 25.8 µM | GI50 (A549 NSCLC): 14.2 µM | TGI (A549 NSCLC): 30.2 µM | GI50 (MCF7 breast): 10.8 µM | TGI (MCF7 breast): 24 µM | GI50 (HT29 colon): 8.91 µM | TGI (HT29 colon): 21.3 µM | GI50 (SF-268 CNS): 12.4 µM | TGI (SF-268 CNS): 25.3 µM | GI50 (DU-145 prostate): 14 µM | TGI (DU-145 prostate): 26 µM | GI50 (SF-539 CNS): 9.78 µM | TGI (SF-539 CNS): 20.1 µM | GI50 (SW-620 colon): 13.1 µM | TGI (SW-620 colon): 25.4 µM | GI50 (OVCAR-5 ovarian): 12.6 µM | TGI (OVCAR-5 ovarian): 23.9 µM | GI50 (OVCAR-8 ovarian): 16.9 µM | TGI (OVCAR-8 ovarian): 45.6 µM | GI50 (RXF 393 renal): 9.16 µM | TGI (RXF 393 renal): 20.3 µM | GI50 (CAKI-1 renal): 14 µM | TGI (CAKI-1 renal): 26.2 µM | GI50 (HOP-92 NSCLC): 9.15 µM | TGI (HOP-92 NSCLC): 20.4 µM | GI50 (PC-3 prostate): 11.2 µM | TGI (PC-3 prostate): 28.1 µM | GI50 (BT-549 breast): 11.3 µM | TGI (BT-549 breast): 23.5 µM | GI50 (ACHN renal): 13.7 µM | TGI (ACHN renal): 25.3 µM | GI50 (COLO 205 colon): 12.5 µM | TGI (COLO 205 colon): 27.9 µM
